Source: US20250152496A1, “SKIN IMPROVING AGENT CONTAINING FERMENTED EXTRACT AS MAIN RAW MATERIAL” (priority 2022, published 2025)

Assays:
[1] = tested on: elastase derived from human skin fibroblasts (NHDF-Ad); experiment: elastase activity inhibition test (anti-wrinkle test); assay type: biochemical; conditions: 50 nM; 37° C. for 2 hours
Description: Therefore, in this example, elastase activity was evaluated by measuring an amount of nitroaniline produced using elastase derived from human skin fibroblasts (NHDF-Ad), and using N-Succinyl-Ala-Ala-Ala-β-nitroanilide as a substrate. Based on the elastase activity, a skin dermis elasticity retention and aging function (an activity inhibition rate) of the test object of rice malt lactic acid bacterium fermentation liquid SW01 (hereinafter, SW01) was examined.
The elastase activity was set to 100% using, as a control, a reaction with only elastase derived from human skin fibroblasts (NHDF-Ad) and N-Succinyl-Ala-Ala-Ala-β-nitroanilide as a substrate. Reaction conditions in this experiment were 37° C. for 2 hours.

[2] = tested on: rat basophilic leukemia cell RBL-2H3; experiment: degranulation inhibition: β-hexosaminidase activity of antigen-stimulated RBL-2H3 cells; assay type: cell-based; conditions: 50 µg/mL, positive control
Description: To determine an extent to which the test object inhibits degranulation, degranulation is assessed by measuring the activity of β-hexosaminidase, which is abundantly present in the granulocyte. Accordingly, the effect of the test object on allergic reaction is evaluated. It is known that rat basophilic leukemia cell RBL-2H3 releases the granulocyte containing histamine and the like to the outside of the cell when IgE bound to the cell surface is cross-linked with an antigen. This has been applied as an experimental system to exploratory research and the like as screening for substances having an anti-allergic action against type I allergy. In this example, the inhibition of degranulation is evaluated by stimulating RBL-2H3 cells with an antigen and measuring the activity of β-hexosaminidase (FIG. 4). […] Further, […] of quercetin was used as a positive control. […] By adding […] of the rice malt lactic acid bacterium fermentation liquid SW01, the activity of β-hexosaminidase was about 50%. […] Note that, the p value in FIG. 4 is p<0.01.

SMILES: CC(C)C[C@H](NP(=O)(O)O[C@@H]1O[C@@H](C)[C@H](O)[C@@H](O)[C@H]1O)C(=O)N[C@@H](Cc1c[nH]c2ccccc12)C(=O)O [phosphoramidon]
- elastase inhibition by standard agent [1]: show elastase inhibition

SMILES: O=c1c(O)c(-c2ccc(O)c(O)c2)oc2cc(O)cc(O)c12 [quercetin]
- activity of β-hexosaminidase (control with sterilized water = 100%) [2]: about 40%
